Data on one substance can be found in patent US20120064020A1, “NOVEL COMPOSITION” (priority 2009, published 2012).

The assay deals with IL-8. Kind of assay: Expression of IL-8 by epidermal human skin model (EST-1000) after IL-1alpha stimulation. In kind it is cell-based. As to conditions: Table 7, 2 wt.-% in vehicle. On the procedure: The Expression of IL-8 by epidermal human skin model after IL-1alpha stimulation has been assessed using 3D-Reconstituted Epidermis Models (EST-1000) (Cellsystems GmbH, St. Katharinen, Germany). The EST-1000 samples were equilibrated over night at 37° C. in a 5% CO^2 atmosphere according to manufacturer's instructions. Then, the EST-1000 samples were stimulated by addition of 10 ng/ml IL-1alpha (Peprotech, UK) to the culture medium.
Afterwards, one sample was treated with the vehicle (i.e. squalane, e.g. commercially available under the tradename Fitoderm®), whereas the other sample was treated with a mixture consisting of the vehicle comprising 2 wt.-% of the mixture of example 1 by topical addition to the tissue samples. At distinct time points, 200 ul medium samples were taken and frozen for further analysis. As can be retrieved from the results presented in table, the expression of the pro-inflammatory cytokine IL-8 by the epidermal human skin model (EST-1000) is suppressed by the addition of the composition according to example 1 in a dose dependent manner.
Furthermore, the expression of IL-8 by epidermal human skin model after IL-1alpha stimulation was assessed as outlined above using the single compounds CLA, Syn Coll®, spent grain wax as well as mixtures thereof.

Take Conjugated linoleic acid [CLA]: for the setting “T = 24 h”, the “Expression of cytokine IL-8, T = 24 h” value was 8161. Also, the “Expression of cytokine IL-8, t = 0 h” value (t = 0 h) came out at 61. Further, the “Expression of cytokine IL-8, t = 2 h” value (t = 2 h) worked out at 2536. In addition, the “Expression of cytokine IL-8, t = 4 h” value (t = 4 h) was determined as 5056. Besides, under “t = 8 h”, the “Expression of cytokine IL-8, t = 8 h” value came out at 5805.
